Experimental data: PubChem BioAssay (NCI)
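Grown in 96-well plates, cells were treated for 48 hours with each compound at five concentrations. Insufficient inhibition: endpoint recorded as highest concentration tested. Definition used: TGI = concentration required for complete inhibition of growth.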

How the values were obtained:
Test in all cases: NCI tumour cell line growth inhibition, 48 h
[1] = system: SF-295 CNS
[2] = system: HCT-116 colon
[3] = system: OVCAR-4 ovarian
[4] = system: HCT-15 colon
[5] = system: CCRF-CEM leukemia
[6] = system: CAKI-1 renal
[7] = system: M14 melanoma
[8] = system: NCI-H226 lung
[9] = system: U251 CNS
[10] = system: UACC-62 melanoma
[11] = system: LOX IMVI melanoma
[12] = system: SK-OV-3 ovarian
[13] = system: RPMI-8226 leukemia
[14] = system: SR leukemia
[15] = system: HT29 colon
[16] = system: TK-10 renal
[17] = system: K-562 leukemia
[18] = system: OVCAR-3 ovarian
[19] = system: HS 578T breast
[20] = system: SF-268 CNS
[21] = system: SW-620 colon
[22] = system: A549 NSCLC
[23] = system: MOLT-4 leukemia
[24] = system: SNB-19 CNS
[25] = system: NCI-H460 lung
[26] = system: UO-31 renal
[27] = system: NCI-H522 lung
[28] = system: KM12 colon
[29] = system: DU-145 prostate
[30] = system: ACHN renal
[31] = system: MALME-3M melanoma
[32] = system: SF-539 CNS
[33] = system: 786-0 renal
[34] = system: MCF7 breast
[35] = system: NCI-H23 lung
[36] = system: MDA-N
[37] = system: NCI/ADR-RES ovarian
[38] = system: SK-MEL-28 melanoma
[39] = system: HL-60(TB) leukemia
[40] = system: EKVX NSCLC
[41] = system: COLO 205 colon
[42] = system: HOP-62 NSCLC
[43] = system: SK-MEL-5 melanoma
[44] = system: OVCAR-5 ovarian
[45] = system: OVCAR-8 ovarian
[46] = system: SN12C renal
[47] = system: SK-MEL-2 melanoma
[48] = system: UACC-257 melanoma
[49] = system: BT-549 breast
[50] = system: PC-3 prostate
[51] = system: MDA-MB-435
[52] = system: IGROV1 ovarian
[53] = system: SNB-75 CNS
[54] = system: MDA-MB-231 breast
[55] = system: HCC-2998 colon
[56] = system: HOP-92 NSCLC
[57] = system: RXF 393 renal
[58] = system: A498 renal

## CN(c1ccccc1Cl)S(=O)(=O)c1ccccc1
[1]
  TGI: > 100 µM
[2]
  TGI: > 100 µM
[3]
  TGI: > 100 µM
[4]
  TGI: > 100 µM
[5]
  TGI: > 100 µM
[6]
  TGI: > 100 µM
[7]
  TGI: > 100 µM
[8]
  TGI: > 100 µM
[9]
  TGI: > 100 µM
[10]
  TGI: > 100 µM
[11]
  TGI: > 100 µM
[12]
  TGI: > 100 µM
[13]
  TGI: > 100 µM
[14]
  TGI: > 100 µM
[15]
  TGI: > 100 µM
[16]
  TGI: > 100 µM
[17]
  TGI: > 100 µM
[18]
  TGI: > 100 µM
[19]
  TGI: > 100 µM
[20]
  TGI: > 100 µM
[21]
  TGI: > 100 µM
[22]
  TGI: > 100 µM
[23]
  TGI: > 100 µM
[24]
  TGI: > 100 µM
[25]
  TGI: > 100 µM
[26]
  TGI: > 100 µM
[27]
  TGI: > 100 µM
[28]
  TGI: > 100 µM
[29]
  TGI: > 100 µM
[30]
  TGI: > 100 µM
[31]
  TGI: > 100 µM
[32]
  TGI: > 100 µM
[33]
  TGI: > 100 µM
[34]
  TGI: > 100 µM
[35]
  TGI: > 100 µM
[36]
  TGI: > 100 µM
[37]
  TGI: > 100 µM
[38]
  TGI: > 100 µM
[39]
  TGI: > 100 µM
[40]
  TGI: > 100 µM
[41]
  TGI: > 100 µM
[42]
  TGI: > 100 µM
[43]
  TGI: > 100 µM
[44]
  TGI: > 100 µM
[45]
  TGI: > 100 µM
[46]
  TGI: > 100 µM
[47]
  TGI: > 100 µM
[48]
  TGI: > 100 µM
[49]
  TGI: > 100 µM
[50]
  TGI: > 100 µM
[51]
  TGI: > 100 µM
[52]
  TGI: > 100 µM
[53]
  TGI: > 100 µM
[54]
  TGI: > 100 µM

## CCOC(=O)/C(=C\NC#N)c1nc2ccccc2[nH]1
[1]
  TGI: > 100 µM
[55]
  TGI: > 100 µM
[2]
  TGI: > 100 µM
[3]
  TGI: > 100 µM
[4]
  TGI: > 100 µM
[6]
  TGI: > 100 µM
[7]
  TGI: > 100 µM
[10]
  TGI: > 100 µM
[11]
  TGI: > 100 µM
[12]
  TGI: > 100 µM
[13]
  TGI: > 100 µM
[14]
  TGI: > 100 µM
[15]
  TGI: > 100 µM
[16]
  TGI: > 100 µM
[18]
  TGI: > 100 µM
[56]
  TGI: > 100 µM
[20]
  TGI: > 100 µM
[21]
  TGI: > 100 µM
[22]
  TGI: > 100 µM
[23]
  TGI: > 100 µM
[24]
  TGI: > 100 µM
[25]
  TGI: > 100 µM
[26]
  TGI: 6.28 µM
[27]
  TGI: > 100 µM
[28]
  TGI: > 100 µM
[29]
  TGI: > 100 µM
[30]
  TGI: > 100 µM
[31]
  TGI: > 100 µM
[32]
  TGI: > 100 µM
[33]
  TGI: > 100 µM
[34]
  TGI: > 100 µM
[35]
  TGI: > 100 µM
[36]
  TGI: > 100 µM
[37]
  TGI: > 100 µM
[38]
  TGI: > 100 µM
[39]
  TGI: > 100 µM
[57]
  TGI: > 100 µM
[40]
  TGI: > 100 µM
[41]
  TGI: > 100 µM
[42]
  TGI: > 100 µM
[43]
  TGI: > 100 µM
[44]
  TGI: > 100 µM
[58]
  TGI: > 100 µM
[45]
  TGI: > 100 µM
[46]
  TGI: > 100 µM
[48]
  TGI: > 100 µM
[49]
  TGI: > 100 µM
[51]
  TGI: > 100 µM
[52]
  TGI: > 100 µM
[53]
  TGI: > 100 µM
